Publication PMC7175278, “2-Oxoester Phospholipase A2 Inhibitors with Enhanced Metabolic Stability” (Biomolecules, 2020)

Biological target: T1, GIVA cPLA2 (Homo sapiens, UniProt P47712)
T1 construct: gene PLA2G4A
T1 sequence (P47712 1-749): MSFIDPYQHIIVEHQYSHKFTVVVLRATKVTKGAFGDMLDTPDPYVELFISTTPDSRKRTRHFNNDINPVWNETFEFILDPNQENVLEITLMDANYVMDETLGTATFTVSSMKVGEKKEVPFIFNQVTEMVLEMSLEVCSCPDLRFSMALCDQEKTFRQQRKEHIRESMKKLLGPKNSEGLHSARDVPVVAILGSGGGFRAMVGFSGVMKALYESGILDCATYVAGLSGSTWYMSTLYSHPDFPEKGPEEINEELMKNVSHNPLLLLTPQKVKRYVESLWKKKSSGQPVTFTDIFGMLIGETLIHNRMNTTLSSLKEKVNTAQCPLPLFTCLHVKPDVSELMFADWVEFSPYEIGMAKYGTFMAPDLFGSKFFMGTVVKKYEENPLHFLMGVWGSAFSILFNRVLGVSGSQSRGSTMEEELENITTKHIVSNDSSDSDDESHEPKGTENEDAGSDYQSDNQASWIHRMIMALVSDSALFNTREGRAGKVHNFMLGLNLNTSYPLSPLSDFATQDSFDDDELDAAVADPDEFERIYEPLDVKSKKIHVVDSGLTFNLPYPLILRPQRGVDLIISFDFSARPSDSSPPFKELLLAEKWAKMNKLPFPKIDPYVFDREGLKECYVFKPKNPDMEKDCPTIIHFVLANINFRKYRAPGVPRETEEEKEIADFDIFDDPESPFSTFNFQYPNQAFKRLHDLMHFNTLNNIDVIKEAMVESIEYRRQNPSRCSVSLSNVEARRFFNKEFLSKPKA
Assay: LC/MS lipidomics-based mixed micelle assay with recombinant human enzyme, dose-response
Assay type: biochemical

| GIVA cPLA2 / XI(50) | Structure (SMILES) |
| --- | --- |
| 0.00036 ± 0.00007 mole fraction (XI(50)) | CC(CCCc1ccc(-c2ccccc2)cc1)C(=O)C(=O)OCCCCC(=O)O (centres unmarked) [17a, 5-((6-([1,1’-Biphenyl]-4-yl)-3-methyl-2-oxohexanoyl)oxy)pentanoic acid] |
| 0.0012 ± 0.00008 mole fraction (XI(50)) | CC(CCCC(=O)O)OC(=O)C(=O)CCCCc1ccc(-c2ccccc2)cc1 (centres unmarked) [17b, 5-((6-([1,1’-Biphenyl]-4-yl)-2-oxohexanoyl)oxy)hexanoic acid] |
